The data set can be described thus: gradient 5% acetonitrile 3 min, to 50% in 2 min, to 85% in 15 min, held 3 min, 100 µL/min. The note with it: column: Zorbax Extend-C18 2.1 x 50 mm; eluents: water / acetonitrile, 0.1% formic acid. In outline:
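The mobile phases were water and acetonitrile, each with 0.1% formic acid, pumped at 100 μL/min through a Zorbax Extend-C18 column (2.1 × 50 mm, 1.8 μm). Pure standards were injected as mixtures of ~100 molecules and detected by a quadrupole time-of-flight mass spectrometer in positive and negative ionization mode. Retention time came from computationally picked adduct peaks, each inspected by hand.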
The compound `Cc1ccccc1NC(=O)C1CCCN(C(=O)c2nn(C)c3c2CN(C(=O)CC2CCCC2)CC3)C1` (centres undefined) displayed an RP-LC retention time of 877 s.

In the case of `Cc1ccc(-c2noc(C3CCCN3C(=O)C3CC(=O)N(c4cccc(Cl)c4)C3)n2)cc1` (centres undefined), the RP-LC retention time is 1040 s. As for `Cc1cc(C)cc(NC(=O)C2CC(=O)N(c3ccc4oc(C)nc4c3)C2)c1` (centres undefined), the figure is 801 s; as for `O=C(CC1CCN(C(=O)C2CCCCC2)CC1)NCc1ccccn1`, 596 s; as for `COCc1ncc(C)n1CC1CN(C(=O)C2(c3ccc(OC)cc3)CC2)C1`, 625 s.

`COC(=O)c1ccc(CN2CCN(CCN3C(=O)C4C5C=CC(C5)C4C3=O)CC2)cc1` (centres undefined) returned an RP-LC retention time of 561 s.

Consider `CN(C)CCNC(=O)c1cc(-c2ccccc2)nc2ccccc12`, for which the RP-LC retention time turned out to be 620 s. As to `Cc1c2cnn(CC(=O)NCCN(C)C)c(=O)c2c(C)n1Cc1ccccc1Cl`, the RP-LC retention time is 655 s.

Take `CC1(C)CC(=O)c2cn(-c3ccc(F)cc3)c(=O)c(C(=O)Nc3ccccc3F)c2C1`: the RP-LC retention time came out at 1070 s. The compound `COCCn1ccc2nc(C)c(C(=O)NCc3ccc(SC)cc3)cc2c1=O` had an RP-LC retention time of 712 s. To `CCOC(=O)N1CCN(c2ncc(C(=O)Nc3ccc(OC)cc3)c(N)n2)CC1` belongs 679 s; to `Cc1ccc(C(=O)Nc2c(C(=O)NCc3ccc4c(c3)OCO4)[nH]c3ccc(C)cc23)cc1`, 979 s. To `CCN1CCn2cc(S(=O)(=O)Nc3cc(OC)ccc3OC)cc2C1=O` belongs 719 s. On to `CCc1nncn1C1CCN(S(=O)(=O)c2cc(F)ccc2C)CC1`, for which the RP-LC retention time is 658 s.

On to `Cc1ccccc1CNC(=O)Cn1cnc2onc(C)c2c1=O`, for which the RP-LC retention time was found to be 738 s. As for `COc1ccccc1C1C2=C(CC(C)(C)CC2=O)Nc2ccccc2N1C(=O)CCC(=O)O` (centres undefined), the figure is 699 s.

`CC(C)(C)c1nc(N2CCCCC2)c2ccccc2n1` displayed an RP-LC retention time of 723 s. Consider `CCNc1cc(N2CCC(CCC(=O)NCc3ccc(OC)cc3)CC2)ncn1`, for which the RP-LC retention time came out at 568 s. As for `COc1ccc(OCC(=O)N2CCCN(c3cc(=O)n(C(C)C)c(=O)n3C(C)C)CC2)cc1`, the figure is 834 s; as for `COc1cc(CNC(=O)c2ccc3c(c2)NC(=O)C2CCCCN32)cc(OC)c1OC` (centres undefined), 726 s; as for `Cc1ccccc1NC(=O)NCCn1c(C(F)(F)F)nc2cccnc21`, 736 s. To `CCS(=O)(=O)Nc1ccc2nc(N3CCN(c4ccccc4OC)CC3)cc(C(=O)O)c2c1` belongs 633 s. `CCc1noc2nc(CCC(=O)NCCN3CCN(CC)CC3)nc(N3CCCCC3)c12` had an RP-LC retention time of 599 s. As for `CN(C1CCc2nn(CC3CC3)c(=O)n2CC1)S(=O)(=O)c1ccc(C#N)cc1` (centres undefined), the figure is 743 s; as for `O=C(CN1C(=O)C(C(=O)N2CCCC2)Sc2ccccc21)Nc1cccc(F)c1` (centres undefined), 1020 s. As for `CCc1nc(-c2csc(S(=O)(=O)N3CCCC(C(=O)Nc4cccc(Cl)c4C)C3)c2)no1` (centres undefined), the figure is 1080 s; as for `CCCn1cnc2cc(CNC(=O)c3ccc(C(C)(C)C)cc3)ccc21`, 720 s.

`Cc1ccc(N2CC(C(=O)NCc3nn(C)c4ccccc34)CC2=O)cc1` (centres undefined) displayed an RP-LC retention time of 782 s.

In turn, `O=C(Nc1ccc(N2CCOCC2)cc1)C1CCN(c2cnc3nccnc3c2)CC1` returned an RP-LC retention time of 610 s. As for `CC(=O)N1CCN(S(=O)(=O)c2ccc(C(=O)O)cc2)CC1`, the figure is 591 s; as for `O=C(c1nc(CS(=O)(=O)c2ccccc2)no1)N1CCN(c2ccccn2)CC1`, 616 s.

For the compound `Cc1ccc2cc(CCC(=O)NCCN3CCN(C)CC3)c(=O)[nH]c2c1`, the RP-LC retention time turned out to be 559 s. As for `CCCN1C(=O)COc2ccc(-c3csc(NC(=O)c4ccc(Cl)cc4)n3)cc21`, the figure is 1140 s. To `Cn1nc(C(=O)Nc2cccnc2)ccc1=O` belongs 493 s; to `O=C(N[C@H]1C[C@@H]2C[C@H]1CN2S(=O)(=O)c1ccc2c(c1)CCC2)c1ccccc1`, 933 s. As for `CCOc1ccc2ncc(C#N)c(Nc3cc(OC)c(OC)c(OC)c3)c2c1`, the figure is 607 s; as for `CC(C)Oc1ccccc1CN1C[C@@H]2C(=O)N(C)C(=O)[C@@H]2C1`, 616 s. For `CC(C)(C)CC(=O)NC1CCN(c2ccc(F)cc2)C1=O` (centres undefined), the RP-LC retention time was 755 s.

`CC(C)Cc1cc(-c2nn3c(-c4ccc(F)cc4)nnc3s2)n[nH]1`: the RP-LC retention time came to 1010 s. As for `O=c1c(NCCC2=CCCCC2)nc2ccncc2n1Cc1ccccc1`, the figure is 818 s. To `CSc1nnc(NC(=O)c2cc(Cl)ccc2Cl)s1` belongs 808 s; to `CCCc1nc(-c2c(C)cc(C)nc2NC(=O)c2ccc(F)c(F)c2)no1`, 947 s; to `CC(C)NC(=O)Cn1cnc2ccccc2c1=O`, 609 s. To `CCc1ccc(-n2ncc3c(=O)n(Cc4nc(-c5ccc(Cl)cc5)no4)cnc32)cc1` belongs 1270 s; to `Cc1nnc(-c2ccc3ccn(CC(=O)N4CCN(c5cc(Cl)ccc5C)CC4)c3c2)o1`, 1020 s. In the case of `O=C(NCc1ccc(F)cc1)c1nc(Cn2c(=O)oc3ccc(Cl)cc32)no1`, the RP-LC retention time is 942 s. In turn, `CC(=O)N1CCc2cc(S(=O)(=O)C(C)CC(=O)N3CCN(c4ccccc4F)CC3)ccc21` (centres undefined) registered an RP-LC retention time of 826 s. `O=C(O)C1CCCN(c2cn[nH]c(=O)c2)C1` (centres undefined) gave an RP-LC retention time of 564 s. As for `COCc1c(C(=O)O)nnn1-c1cccc(Br)c1`, the figure is 729 s; as for `CCc1nc2cc(N3CCC(C(=O)NCc4cc(F)cc(F)c4)CC3)cnc2nc1CC`, 838 s; as for `COc1cccc(C(=O)Nc2cc(-c3cccnc3)no2)c1`, 730 s.

`Cn1ncc(N2CCC(C(=O)Nc3ccc4oc(-c5ccncc5)nc4c3)C2)cc1=O` (centres undefined): the RP-LC retention time amounted to 642 s. As for `COc1ccc(-c2noc(Cc3nnc(-c4ccc(Cl)cc4)o3)n2)cc1OC`, the figure is 966 s. As for `Cc1cc(NC(=O)N2CCCC(C)(C(=O)NCc3ccc(F)cc3)C2)ccc1Br` (centres undefined), the figure is 1050 s; as for `CCOC(=O)c1nc(N2CCN(C(=O)c3ccco3)CC2)c2ccccc2n1`, 665 s; as for `CCN1C(=O)c2cccnc2Sc2cc(NC(=O)c3cccc(C)c3)ccc21`, 870 s. As for `COc1ccc(N2C=C(C(=O)N3CCCC3)S(=O)(=O)c3ccc(F)cc32)cc1Cl`, the figure is 838 s; as for `Fc1cccc(CN2CCC(N3CC4(CCCCC4)C3c3ccncc3)CC2)c1` (centres undefined), 560 s; as for `O=C(Nc1ccccc1)C1CC(=O)N(CCc2c[nH]c3ccc(F)cc23)C1` (centres undefined), 796 s. For `CCOc1ccc(NC(=O)Cn2c(CC)nc3cc4c(cc32)OCCO4)cc1`, the RP-LC retention time was 670 s.

In the case of `Cc1ccc(-c2nnc(Cc3nc(-c4ccccc4F)no3)o2)cc1F`, the RP-LC retention time stood at 1100 s. The compound `CC(=O)Nc1cc(C(=O)NC(C)c2ccccc2)c2ccc(C)nc2c1` (centres undefined) gave an RP-LC retention time of 1030 s. As for `COC(=O)c1c(C)c(C(=O)C(C)N(CC(C)C)C(=O)c2ccc(F)cc2)c(C)n1C` (centres undefined), the figure is 1020 s; as for `CCOC(=O)c1ccc(NC(=O)c2cc(C(C)C)n3nccc3n2)cc1`, 1170 s; as for `CCN1c2cc(F)ccc2C(=O)NC12CCN(C(=O)c1ccc(C)cc1)CC2`, 807 s. As for `COC1CCC12CCN(C(=O)C1CCCC1)CC2` (centres undefined), the figure is 841 s. As for `CCCS(=O)(=O)c1nc2ccc(NS(=O)(=O)c3ccc(C)cc3C)cc2s1`, the figure is 999 s; as for `CC1=C(c2ccc(C)cc2)S(=O)(=O)N=C1N1CCCN(C(=O)NCCC(C)C)CC1`, 895 s; as for `CCN1CCCC1CNC(=O)c1nnc(-c2oc3c(C)cccc3c2C)o1` (centres undefined), 725 s. `COc1ccc2c(c1)C1(CCN(C(=O)COc3cccc(C)c3)C1)C(=O)N2` (centres undefined) yielded an RP-LC retention time of 668 s.

In turn, `Cc1ccc(NC(=O)N2CCN(c3cnn4c(C)nnc4c3)CC2)c(C)c1` displayed an RP-LC retention time of 634 s. Compound `CC1Oc2ccc(S(=O)(=O)N3CCC(C(=O)Nc4ccc(F)c(Cl)c4)CC3)cc2NC1=O` (centres undefined) returned an RP-LC retention time of 902 s. As for `CS(=O)(=O)N1CCc2nn(Cc3ccccc3)c(=O)n2CC1`, the figure is 641 s; as for `CN(C(=O)C(=O)Nc1ccc2nc3n(c(=O)c2c1)CCCCC3)c1cccc(C(F)(F)F)c1`, 819 s. As for `CC1CC(=O)c2cnn(-c3nc4ccccc4[nH]3)c2C1` (centres undefined), the figure is 761 s; as for `O=C(Cn1cnc2c(sc3nc(-c4ccccc4)ccc32)c1=O)Nc1ccccc1Cl`, 1020 s; as for `COC(=O)C(C)NC(=O)N1CCCN(C2=NS(=O)(=O)C(c3ccc(C)cc3)=C2C)CC1` (centres undefined), 736 s. As for `COc1ccc(NC(=O)c2cc(C(C)C)n3nccc3n2)cc1Cl`, the figure is 1130 s. For `CC1=C(c2ccc(F)cc2)S(=O)(=O)N=C1N1CCCN(C(=O)c2ccccc2)CC1`, the RP-LC retention time was 802 s.

For the origin of these results see the METLIN SMRT retention time set (Domingo-Almenara et al. 2019).
